This is an account of results in patent US20190038759A1 (priority 2017, published 2019).

Converted amounts (≈) assume the structure as drawn. Read-outs that look alike come from different tables or passages of the source. Non-standard residues stand in square brackets, D forms with d. Residues, ends and D or L forms follow the SMILES beside them. *: point of attachment. Propyl(3-guanidino) = N=C(N)NCCC*; Hyp = O=C(O)[C@@H]1C[C@@H](O)CN1; Isobutyl = CC(C)C*

In series [1] the test system is tumor necrosis factor-α (TNF-α). In words: Anti-inflammatory effect on LPS stimulated macrophages, ELISA. The class given is cell-based. Particulars: 10 μM, LPS 150 ng/ml, J774A.1, six hours. Here is the method:
(§1) The anti-inflammatory effect of compounds on LPS stimulated macrophages, J774A.1 cells was investigated. Next, the cells were stimulated with LPS (150 ng/ml final concentration) in the presence of 10 μM of compounds. Cells that were stimulated with LPS alone and untreated cells served as controls. Cells were incubated for six hours at 37° C. and supernatants from each treatment were collected and stored at −20° C. until use. Cytokine detection of tumor necrosis factor-α (TNF-α) and interleukin-6 (IL-6) in supernatants was done using ELISA as described before following the manufacturer's instructions^24,25. Cytokine levels were expressed as percent change relative to the LPS-stimulated control, using triplicate samples for each treatment condition.
In general terms: ELISA stands for enzyme-linked immunosorbent assay.

The test system of another series is interleukin-6 (IL-6). The description is as above. The settings on record: 10 μM, LPS 150 ng/ml, J774A.1, six hours. Type of series: cell-based. Here is the method: as §1
In series [2] the test system is Colistin-resistant P. aeruginosa 1109. In words: microbe, parasite or virus in culture. The class given is cell-based. Particulars: Table 3, colistin-resistant P. aeruginosa 1109, read-out: Minimum inhibitory concentration (MIC).
In series [3] the test system is LPS-induced activation of the LAL enzyme (Limulus amoebocyte lysate). In words: LPS binding: inhibition of LPS-induced activation of LAL enzyme. The settings on record: at 10 (unit not given). Type of series: biochemical.
Series [4] concerns S. aureus (ATCC 6538) biofilm. The series can be described thus: Disruption of established biofilms, crystal violet. The class given is cell-based. Here is the method: (§2) The compounds of the present disclosure were examined for their ability to disrupt bacterial biofilms using the microtiter dish biofilm formation assay. Briefly, overnight cultures of S. aureus (ATCC 6538) and S. epidermidis (ATCC 35984) were diluted 1:100 in TSB supplemented with 1% glucose. Overnight cultures of P. aeruginosa PAO1 and A. baumannii ATCC BAA-1605 were diluted 1:100 in M63 minimal medium supplemented with magnesium sulfate, glucose and casamino acids. Bacterial suspensions were incubated in 96-well plates at 37° C. for 24 hours. After removing media, wells were rinsed with PBS to remove planktonic bacteria before re-filling wells with fresh media. Compounds were added at specific concentrations and plates were incubated at 37° C. for 24 hours. After incubation, wells were washed and biofilms were stained with 0.5% (w/v) crystal violet for 30 minutes. The dye was solubilized with ethanol (95%) and the biofilm mass was quantified at OD595. Experiments were done in triplicate and repeated twice independently.

Series [5] has as its system Shigella flexneri.
The subject of series [6] is Mycobacterium smegmatis.
Series [7] concerns Salmonella enteritidis.
The test system of series [8] is A. baumannii ATCC BAA-1605 biofilm. The series can be described thus: Disruption of established biofilms, crystal violet. The class given is cell-based. Particulars: 32 μM. How it is done:
as §2

Series [9] has as its system P. aeruginosa PAO1 biofilm. In words: Disruption of established biofilms, crystal violet. The settings on record: 32 μM. Type of series: cell-based. Here is the method:
as §2

In series [10] the test system is S. epidermidis ATCC 35984 biofilm. In words: Disruption of established biofilms, crystal violet. The class given is cell-based. Particulars: S. epidermidis mature biofilm, 64 μM. How it is done: as §2
Series [11] concerns Brucella abortus.
For series [12], the system named is Mycobacterium tuberculosis H37Ra.
In series [13] the test system is intracellular pathogens in J774A.1 cells. The class given is cell-based. Particulars: infected J774A.1 macrophages.
For series [14], the system named is Methicillin-resistant S. aureus USA400. In words: MIC against clinical and drug-resistant isolates. Type of series: cell-based. The settings on record: Staphylococcus aureus; Table 3, MRSA USA400; read-out: Minimum inhibitory concentration (MIC).
The next series has as its system S. aureus (ATCC 6538). The series can be described thus: MIC, biofilm-forming clinical isolate, broth microdilution. Type of series: cell-based. The settings on record: Staphylococcus aureus, ATCC6538.
In another series the test system is C. elegans. Particulars: 50 μM.
Series [15] concerns Escherichia coli (ATCC 25922). In words: In vitro antimicrobial activity (MIC), OD-based growth. Particulars: ATCC25922.
For series [16], the system named is Shigella flexneri. The series can be described thus: microbe, parasite or virus in culture.
Series [17] has as its system S. epidermidis (ATCC 35984). The series can be described thus: MIC, biofilm-forming clinical isolate, broth microdilution. Type of series: cell-based. Particulars: Staphylococcus epidermidis, ATCC35984.
Series [18] relates to Staphylococcus aureus (ATCC 25923). The series can be described thus: In vitro antimicrobial activity (MIC), OD-based growth. Particulars: ATCC25923.
The subject of series [19] is Mycobacterium smegmatis. The series can be described thus: microbe, parasite or virus in culture. Particulars: Mycolicibacterium smegmatis.
The test system of a further series is P. aeruginosa PAO1. In words: MIC against clinical and drug-resistant isolates. The class given is cell-based. The settings on record: Pseudomonas aeruginosa; Table 3, P. aeruginosa PAO1; read-out: Minimum inhibitory concentration (MIC).
Another series concerns A. baumannii BAA-1605. The series can be described thus: MIC against clinical and drug-resistant isolates. The class given is cell-based. Particulars: Acinetobacter baumannii, BAA1605; Table 3, A. baumannii BAA-1605; read-out: Minimum inhibitory concentration (MIC).
The subject of series [20] is Brucella abortus. The series can be described thus: microbe, parasite or virus in culture.
Series [21] deals with Vancomycin-resistant E. faecium ATCC 700221. The series can be described thus: MIC against clinical and drug-resistant isolates. The class given is cell-based. The settings on record: Enterococcus faecium, ATCC700221; Table 3, vancomycin-resistant E. faecium ATCC 700221; read-out: Minimum inhibitory concentration (MIC).
For series [22], the system named is Salmonella enteritidis. The series can be described thus: microbe, parasite or virus in culture. Particulars: Salmonella enterica.
The subject of series [23] is Mycobacterium tuberculosis H37Ra. In words: microbe, parasite or virus in culture.
The next series concerns K. pneumoniae BAA-1706. In words: MIC against clinical and drug-resistant isolates. The class given is cell-based. Particulars: Klebsiella pneumoniae, BAA1706; Table 3, K. pneumoniae BAA-1706; read-out: Minimum inhibitory concentration (MIC).
The subject of another series is E. coli (ATCC 25922). The class given is cell-based. Particulars: at five times MIC.

With colistin, in series [1], the “decrease of TNF-α levels” value is given as 97.53%±0.32. For the same molecule, the “decrease of IL-6 levels” value in the series with interleukin-6 (IL-6) is 95.04%±0.56. Also, the MIC in series [2] was 128 µM. Besides, in [3], the “inhibition of the LAL enzyme” value was 79.76%±4.6.
With `CN[C@H](CC(C)C)C(=O)N[C@H]1C(=O)N[C@@H](CC(N)=O)C(=O)N[C@H]2C(=O)N[C@H]3C(=O)N[C@H](C(=O)N[C@H](C(=O)O)c4cc(O)cc(O)c4-c4cc3ccc4O)[C@H](O)c3ccc(c(Cl)c3)Oc3cc2cc(c3O[C@@H]2O[C@H](CO)[C@@H](O)[C@H](O)[C@H]2O[C@H]2C[C@](C)(N)[C@H](O)[C@H](C)O2)Oc2ccc(cc2Cl)[C@H]1O` [vancomycin], the “disruption of biofilm mass” value in series [4] (S. aureus mature biofilm, 8 μM) was “approximately 50%”.
With `CC(C)CO[C@@H]1C[C@@H](C(=O)N2C[C@H](OCCCNC(=N)N)C[C@H]2C(=O)N2C[C@H](OCCCNC(=N)N)C[C@H]2C(=O)N2C[C@H](OCC(C)C)C[C@H]2C(=O)N2C[C@H](OCCCNC(=N)N)C[C@H]2C(=O)N2C[C@H](OCCCNC(=N)N)C[C@H]2C(=O)N2C[C@H](OCC(C)C)C[C@H]2C(=O)N2C[C@H](OCCCNC(=N)N)C[C@H]2C(=O)N2C[C@H](OCCCNC(=N)N)C[C@H]2C(=O)N2C[C@H](OCC(C)C)C[C@H]2C(=O)N2C[C@H](OCCCNC(=N)N)C[C@H]2C(=O)N2C[C@H](OCCCNC(=N)N)C[C@H]2C(=O)N2C[C@H](OCC(C)C)C[C@H]2C(N)=O)N(C(=O)CN)C1` [Example P14LRR] (H-G[Hyp](Isobutyl)[Hyp](Propyl(3-guanidino))[Hyp](Propyl(3-guanidino))[Hyp](Isobutyl)[Hyp](Propyl(3-guanidino))[Hyp](Propyl(3-guanidino))[Hyp](Isobutyl)[Hyp](Propyl(3-guanidino))[Hyp](Propyl(3-guanidino))[Hyp](Isobutyl)[Hyp](Propyl(3-guanidino))[Hyp](Propyl(3-guanidino))[Hyp](Isobutyl)-NH2; N-terminus assumed), in series [1], the “decrease of TNF-α levels” value was 68.4%±5.43. Also, the “decrease of IL-6 levels” value in the series on interleukin-6 (IL-6) was 81.92%±0.78. The MIC in the series with Shigella flexneri [5] was determined as 8 µM (≈ 20.9 µg/mL); in the series on Mycobacterium smegmatis [6], 8 µM (≈ 20.9 µg/mL); with Salmonella enteritidis [7], 32 µM (≈ 83.8 µg/mL); in the series on Brucella abortus [11], 16 µM (≈ 41.9 µg/mL); in series [12] it was 16 µM (≈ 41.9 µg/mL). The viability at 72 h, 50 µM in “in vivo” is greater than 90%. Also, the “reduction of biofilm mass” value in [8] worked out at 30%. Besides, the disruption of biofilm result in series [9] was “ineffective”. Moreover, the “disruption of biofilm mass” value in series [10] is on record as “approximately 50%”; in series [4] (S. aureus mature (24 hour) biofilm, 1 μM), “not effective”; in [4] (S. aureus mature biofilm, 8 μM), “not effective”. Besides, the “inhibition of the LAL enzyme” value in [3] is on record as 71.2%±5. Further, the “clearance of intracellular bacteria” value in series [13] is on record as “neither kanamycin nor P14LRR is capable of effectively clearing intracellular bacteria”.
`NC[C@H]1O[C@H](O[C@H]2[C@H](O)[C@@H](O[C@H]3O[C@H](CO)[C@@H](O)[C@H](N)[C@H]3O)[C@H](N)C[C@@H]2N)[C@H](O)[C@@H](O)[C@@H]1O` [kanamycin]: the “decrease of TNF-α levels” value in series [1] is 11.41%±4.5. In addition, in the series on interleukin-6 (IL-6), the “decrease of IL-6 levels” value was 10%±3.30. The MIC in [14] is 4 µM (≈ 1.94 µg/mL); in the series on S. aureus (ATCC 6538) (Table 2, S. aureus clinical isolate that forms biofilms, read-out: MIC) it was 4 µM (≈ 1.94 µg/mL); with S. aureus (ATCC 6538) (Table 3, S. aureus ATCC 6538, read-out: Minimum inhibitory concentration (MIC)), 2 µM (≈ 0.969 µg/mL); in series [15], 2 µM (≈ 0.969 µg/mL); against Shigella flexneri [16], 2 µM (≈ 0.969 µg/mL); in series [2] (Pseudomonas aeruginosa) it was greater than 256 µM. Also, the MIC in [17] (Table 2, S. epidermis clinical isolate that forms biofilms, read-out: MIC) is greater than 128 µM; in [17] (Table 3, S. epidermidis ATCC 35984, read-out: Minimum inhibitory concentration (MIC)), greater than 256 µM; in series [18], 2 µM (≈ 0.969 µg/mL); in the series with Mycobacterium smegmatis [19], 8 µM (≈ 3.88 µg/mL); in the series with P. aeruginosa PAO1, greater than 256 µM; in the series with A. baumannii BAA-1605 it was 128 µM (≈ 62 µg/mL). For the same molecule, the MIC in the series with Brucella abortus [20] is 4 µM (≈ 1.94 µg/mL); in series [21] it was greater than 256 µM; in the series with Salmonella enteritidis [22] it was 16 µM (≈ 7.75 µg/mL); in [23], 2 µM (≈ 0.969 µg/mL); in the series with K. pneumoniae BAA-1706 it was 256 µM (≈ 124 µg/mL). The “viability of C. elegans” value with C. elegans (glp-4(bn2) I, sek-1(km4), Caenorhabditis elegans, in vivo, 3 days) was greater than 90%. Further, the “disruption of biofilm mass” value in [4] (S. aureus mature biofilm, 8 μM) was “approximately 50%”.
On to `CC[C@H](C)[C@H](NC(=O)CN)C(=O)NCC(=O)N[C@@H](C)C(=O)N[C@H](C(=O)N[C@@H](CC(C)C)C(=O)N[C@@H](CCCCN)C(=O)N[C@H](C(=O)N[C@@H](CC(C)C)C(=O)N[C@H](C(=O)N[C@H](C(=O)NCC(=O)N[C@@H](CC(C)C)C(=O)N1CCC[C@H]1C(=O)N[C@@H](C)C(=O)N[C@@H](CC(C)C)C(=O)N[C@H](C(=O)N[C@@H](CO)C(=O)N[C@@H](Cc1c[nH]c2ccccc12)C(=O)N[C@H](C(=O)N[C@@H](CCCCN)C(=O)N[C@@H](CCCNC(=N)N)C(=O)N[C@@H](CCCCN)C(=O)N[C@@H](CCCNC(=N)N)C(=O)N[C@@H](CCC(N)=O)C(=O)N[C@@H](CCC(N)=O)C(N)=O)[C@@H](C)CC)[C@@H](C)CC)[C@@H](C)O)[C@@H](C)O)C(C)C)C(C)C` [melittin], for which the “release of beta-galactosidase from E. coli” value in the series on E. coli (ATCC 25922) is “substantial level of release”. In addition, the “viability of C. elegans” value in the series on C. elegans (after 3 days of treatment) is reported as “no live worms”.
As to `CC(=O)NC[C@H]1CN(c2ccc(N3CCOCC3)c(F)c2)C(=O)O1` [linezolid], the “disruption of biofilm mass” value in [4] (S. aureus mature biofilm, 8 μM) is “approximately 50%”.

Usually viability stands for a per cent measure of how many cells are alive, often set against a control.
